{"source": "paper PMC2362731", "about": "“Phase I study of Carzelesin (U-80,244) given (4-weekly) by intravenous bolus schedule” (British Journal of Cancer, 1999)", "key": {"[1]": {"system": "murine and human tumour xenografts", "details": "ref Li et al, 1992, cited from earlier work"}, "[2]": {"test": "Ex vivo conversion in blood samples", "type": "in vitro ADME, human", "details": "if the sample is not immediately cooled in ice-water", "text": "(§1) Carzelesin (U-80,244, Figure 1A) is a cyclopropylpyrroloindole (CPI) prodrug analogue of CC-1065. […] CPI drugs are a class of compounds with unique DNA interactive properties. These agents fit into the minor groove region of DNA, and the CPI function in the molecule mediates a covalent binding to the N3 position of adenine in A-T rich regions, thus forming DNA adducts in a sequence selective fashion (Hurley et al, 1984; Reynolds et al, 1985). Three new CPIs have now been developed. […] Bizelesin differs from the classical CPI drugs in that it contains two chloromethyl functions, which are both converted (via intramolecular rearrangements) to the CPI alkyl- ating species that interact with DNA. Consequently, this agent is capable of forming DNA interstrand cross-links (Lee et al, 1991). […] Therefore, efforts were directed to modu- late the alkylation rate by the preparation of CPI prodrugs that would require chemical or enzymatic conversion. The activation of Carzelesin is a two-step reaction with hydrolysis of the phenyl- urethane substituent to form the intermediate compound U-76,073, followed by ring closure to form the active product U-76,074 (Figure 1B). […] The concentration of U-76,074 (active metabolite) extended above the lower limit of quantitation (1 ng ml-1) for short periods of time and only at the higher dose levels. […]"}, "solid tumours": {"system": "solid tumours", "test": "Antitumour activity (WHO response criteria)", "type": "in vivo, human", "details": "51 patients, eight not evaluable", "text": "as §1"}, "[3]": {"system": "bone marrow, kidney, liver and spleen", "design": "method as in EORTC-NDDO, 1992", "details": "ref EORTC-NDDO, 1992; cited from earlier work"}}}
{"smiles": "CCN(CC)c1ccc2cc(C(=O)Nc3ccc4[nH]c(C(=O)N5C[C@@H](CCl)c6c5cc(OC(=O)Nc5ccccc5)c5[nH]cc(C)c65)cc4c3)oc2c1", "note": "[Carzelesin]", "values": [{"measurement": "efficacy in a broad panel of murine and human tumour xenografts", "setting": "[1]; compared with adozelesin", "result": "more efficacious"}, {"measurement": "efficacy against Lewis lung carcinoma, B16 melanoma, colon 38 carcinoma, colon CX1 adenocarcinoma, lung LX-1 tumour, ovarian 2780 and prostatic DU-145 carcinoma", "setting": "[1]; Houghton et al, 1995", "result": "highly effective"}, {"measurement": "stability in blood sample ex vivo", "setting": "[2]", "result": "readily converted to U-76,074 ex vivo"}, {"measurement": "patients with progressive disease as best overall response", "setting": "solid tumours", "result": "Thirty-four patients"}, {"measurement": "patients with stable disease as best overall response", "setting": "solid tumours", "result": "nine patients"}, {"measurement": "organs in which toxicity occurred in preclinical studies", "setting": "[3]", "result": "bone marrow, kidney, liver and spleen"}]}
